In brackets after ≈: the same amount, converted by molar mass.
Assays:
Assay type in all cases: cell-based
ESCHERICHIA COLI KNK 437 = settings: E. coli KNK 437; BHI agar; unit assumed
[1] = test system: PSEUDOMONAS AERUGINOSA K799/WT; test: In vitro antibacterial activity, MIC, BHI agar dilution; settings: P. aeruginosa K799/WT, unit assumed
[2] = test system: PSEUDOMONAS AERUGINOSA BMH10; test: as above; settings: P. aeruginosa BMH10, unit assumed
[3] = test system: PSEUDOMONAS AERUGINOSA 5007; test: as above; settings: P. aeruginosa 5007, unit assumed
[4] = test system: PSEUDOMONAS AERUGINOSA DPHD-2862; test: as above; settings: P. aeruginosa DPHD-2862, unit assumed
[5] = test system: STREPTOCOCCUS PYOGENES EES61; test: as above; settings: S. pyogenes EES61, unit assumed
[6] = test system: STAPHYLOCOCCUS AUREUS A-5278; test: as above; settings: S. aureus A-5278, unit assumed
[7] = test system: PSEUDOMONAS AERUGINOSA DPHD-5263; test: as above; settings: P. aeruginosa DPHD-5263, unit assumed
[8] = test system: ENTEROBACTER AEROGENES ATCC 13048; test: as above; settings: E. aerogenes ATCC 13048, unit assumed
[9] = test system: STAPHYLOCOCCUS AUREUS CMX 553; test: as above; settings: S. aureus CMX 553, unit assumed
[10] = test system: KLEBSIELLA PNEUMONIAE ATCC 8045; test: as above; settings: K. pneumoniae ATCC 8045, unit assumed
CANDIDA ALBICANS CCH 442 = test: as above; settings: C. albicans CCH 442, unit assumed
[11] = test system: STAPHYLOCOCCUS AUREUS CMX 642A; test: as above; settings: S. aureus CMX 642A, unit assumed
[12] = test system: STREPTOCOCCUS PYOGENES PIU 2548; test: as above; settings: S. pyogenes PIU 2548, unit assumed
M[…] ATCC 9341 = test: as above; settings: M. luteus ATCC 9341, unit assumed
In short: (§1)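 BHI agar dilution: twelve plates with successive compound dilutions, inoculated by replicator with 1:100 culture dilutions (1:10 for slow growers such as Micrococcus and Streptococcus), 20 to 24 hours at 35-37° C. MIC was the lowest concentration giving no growth, slight haze or sparse isolated colonies versus drug-free control; erythromycin A as class reference.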

M[…] ATCC 4698 = test: as above; settings: M. luteus ATCC 4698, unit assumed
In short: as §1

EN[…] ATCC 8043 = test: as above; settings: E. faecium ATCC 8043, unit assumed
In short: as §1

STR[…] 508 = test: as above; settings: S. agalactiae CMX 508, unit assumed
In short: as §1

[13] = test system: STAPHYLOCOCCUS EPIDERMIDIS 3519; settings: S. epidermidis 3519; BHI agar; unit assumed
[14] = test system: PROVIDENCIA STUARTII CMX 640; settings: P. stuartii CMX 640; BHI agar; unit assumed
PSEUDOMONAS CEPACIA 296I = test: In vitro antibacterial activity, MIC, BHI agar dilution; settings: P. cepacia 296I, unit assumed
[15] = test system: STAPHYLOCOCCUS AUREUS A5177; test: as above; settings: S. aureus A5177, unit assumed
ESCHERICHIA COLI SS = test: as above; settings: E. coli SS, unit assumed
[16] = test system: ACINETOBACTER CALCOACETICUS CMX 669; test: as above; settings: A. calcoaceticus CMX 669, unit assumed
ESCHERICHIA COLI DC-2 = test: as above; settings: E. coli DC-2, unit assumed
[17] = test system: STAPHYLOCOCCUS AUREUS 1775; test: as above; settings: S. aureus 1775, unit assumed
[18] = test system: STREPTOCOCCUS BOVIS A-5169; test: as above; settings: S. bovis A-5169, unit assumed
[19] = test system: PSEUDOMONAS AERUGINOSA K799/61; test: as above; settings: P. aeruginosa K799/61, unit assumed
[20] = test system: STAPHYLOCOCCUS AUREUS NCTC10649M; test: as above; settings: S. aureus NCTC10649M, unit assumed
[21] = test system: STREPTOCOCCUS PYOGENES 930; test: as above; settings: S. pyogenes 930, unit assumed
[22] = test system: MYCOBACTERIUM SMEGMATIS ATCC 114; test: as above; settings: M. smegmatis ATCC 114, unit assumed
ESCHERICHIA COLI H560 = test: as above; settings: E. coli H560, unit assumed
[23] = test system: STAPHYLOCOCCUS AUREUS ATCC 6538P; test: as above; settings: S. aureus ATCC 6538P, 35-37° C., 20 to 24 hours, unit assumed
ESCHERICHIA COLI JUHL = settings: E. coli JUHL; BHI agar; unit assumed

| Compound | MIC (ESCHERICHIA COLI KNK 437) [µg/mL] | MIC [1] [µg/mL] | MIC [2] [µg/mL] | MIC [3] [µg/mL] | MIC [4] [µg/mL] | MIC [5] [µg/mL] | MIC [6] [µg/mL] | MIC [7] [µg/mL] | MIC [8] [µg/mL] | MIC [9] [µg/mL] | MIC (CANDIDA ALBICANS CCH 442) [µg/mL] | MIC [11] [µg/mL] | MIC [12] [µg/mL] | MIC (M[…] ATCC 9341) [µg/mL] | MIC (M[…] ATCC 4698) [µg/mL] | MIC (EN[…] ATCC 8043) [µg/mL] | MIC (STR[…] 508) [µg/mL] | MIC [13] [µg/mL] | MIC [14] [µg/mL] | MIC (PSEUDOMONAS CEPACIA 296I) [µg/mL] | other results |
| --- | --- | --- | --- | --- | --- | --- | --- | --- | --- | --- | --- | --- | --- | --- | --- | --- | --- | --- | --- | --- | --- |
| CC[C@H]1OC(=O)[C@H](C)C(=O)[C@H](C)[C@@H](O[C@@H]2O[C@H](C)C[C@H](N(C)C)[C@H]2O)[C@](C)(OC)C[C@@H](C)C2=NC[C@H](Cc3ccc(NC(=O)OCc4ccccc4)cc3)N3C(=O)O[C@@]1(C)[C@H]3[C@H]2C [Example 68] | > 100 | > 100 | > 100 | > 100 | > 100 | 0.1 (≈ 0.114 µM) | > 100 | > 100 | > 100 | 0.2 (≈ 0.228 µM) | > 100 | 0.2 (≈ 0.228 µM) | 0.78 (≈ 0.889 µM) | 0.1 (≈ 0.114 µM) | 0.39 (≈ 0.445 µM) | 0.2 (≈ 0.228 µM) | 0.05 (≈ 0.057 µM) | 0.39 (≈ 0.445 µM) | > 100 | > 100 | MIC [10]: > 100 µg/mL; MIC [15]: 0.2 µg/mL (≈ 0.228 µM); MIC (ESCHERICHIA COLI SS): 1.56 µg/mL (≈ 1.78 µM); MIC [16]: 100 µg/mL (≈ 114 µM); MIC (ESCHERICHIA COLI DC-2): 100 µg/mL (≈ 114 µM); MIC [17]: > 100 µg/mL; MIC [18]: 0.05 µg/mL (≈ 0.057 µM); MIC [19]: 3.1 µg/mL (≈ 3.53 µM); MIC [20]: 0.2 µg/mL (≈ 0.228 µM); MIC [21]: 50 µg/mL (≈ 57 µM); MIC [22]: 3.1 µg/mL (≈ 3.53 µM); MIC (ESCHERICHIA COLI H560): 50 µg/mL (≈ 57 µM); MIC [23]: 0.2 µg/mL (≈ 0.228 µM) |
| CC[C@H]1OC(=O)[C@H](C)C(=O)[C@H](C)[C@@H](O[C@@H]2O[C@H](C)C[C@H](N(C)C)[C@H]2O)[C@](C)(OC)C[C@@H](C)C2=NC[C@H](COCc3ccc(F)cc3)N3C(=O)O[C@@]1(C)[C@H]3[C@H]2C [Example 71] | 25 (≈ 32.2 µM) | 100 (≈ 129 µM) | 50 (≈ 64.4 µM) | 100 (≈ 129 µM) | 100 (≈ 129 µM) | 0.01 (≈ 0.0129 µM) | > 100 | > 100 | 50 (≈ 64.4 µM) | 0.1 (≈ 0.129 µM) | > 100 | 0.1 (≈ 0.129 µM) | 0.39 (≈ 0.503 µM) | 0.01 (≈ 0.0129 µM) | 0.1 (≈ 0.129 µM) | 0.05 (≈ 0.0644 µM) | 0.01 (≈ 0.0129 µM) | 0.1 (≈ 0.129 µM) | 100 (≈ 129 µM) | 25 (≈ 32.2 µM) | MIC (ESCHERICHIA COLI JUHL): 25 µg/mL (≈ 32.2 µM); MIC [15]: 0.1 µg/mL (≈ 0.129 µM); MIC (ESCHERICHIA COLI SS): 0.39 µg/mL (≈ 0.503 µM); MIC [16]: 12.5 µg/mL (≈ 16.1 µM); MIC (ESCHERICHIA COLI DC-2): 12.5 µg/mL (≈ 16.1 µM); MIC [17]: > 100 µg/mL; MIC [18]: 0.02 µg/mL (≈ 0.0258 µM); MIC [19]: 0.78 µg/mL (≈ 1.01 µM); MIC [20]: 0.1 µg/mL (≈ 0.129 µM); MIC [21]: 25 µg/mL (≈ 32.2 µM); MIC [22]: 0.2 µg/mL (≈ 0.258 µM); MIC (ESCHERICHIA COLI H560): 12.5 µg/mL (≈ 16.1 µM); MIC [23]: 0.1 µg/mL (≈ 0.129 µM) |
| CC[C@H]1OC(=O)[C@H](C)C(=O)[C@H](C)[C@@H](O[C@@H]2O[C@H](C)C[C@H](N(C)C)[C@H]2O)[C@](C)(OC)C[C@@H](C)C2=NC3COCC3N3C(=O)O[C@@]1(C)[C@H]3[C@H]2C (stereo partly drawn) [Example 108] | > 100 | > 100 | > 100 | > 100 | > 100 | 0.1 (≈ 0.147 µM) | > 100 | > 100 | > 100 | 0.78 (≈ 1.15 µM) | > 100 | 0.78 (≈ 1.15 µM) | 0.39 (≈ 0.574 µM) | 0.1 (≈ 0.147 µM) | 0.78 (≈ 1.15 µM) | 0.2 (≈ 0.294 µM) | 0.1 (≈ 0.147 µM) | 1.56 (≈ 2.29 µM) | > 100 | > 100 | MIC [10]: > 100 µg/mL; MIC [15]: 0.39 µg/mL (≈ 0.574 µM); MIC (ESCHERICHIA COLI SS): 0.78 µg/mL (≈ 1.15 µM); MIC [16]: 100 µg/mL (≈ 147 µM); MIC (ESCHERICHIA COLI DC-2): > 100 µg/mL; MIC [17]: > 100 µg/mL; MIC [18]: 0.02 µg/mL (≈ 0.0294 µM); MIC [19]: 6.2 µg/mL (≈ 9.12 µM); MIC [20]: 0.78 µg/mL (≈ 1.15 µM); MIC [21]: > 100 µg/mL; MIC [22]: 12.5 µg/mL (≈ 18.4 µM); MIC (ESCHERICHIA COLI H560): > 100 µg/mL; MIC [23]: 0.39 µg/mL (≈ 0.574 µM) |

From US6274715A, “Tricyclic erythromycin derivatives” (priority 1997, dated 2001)
